Calls of active or inactive are those of the source. The rule behind the calls is not given here.
Columns and labels:
[1] = tested on: LNCaP; experiment: Inhibition of cell proliferation in human LNCAP cells at 1 uM after 72 hrs by MTS assay relative to control; type: functional
[2] = tested on: HL-60; experiment: Inhibition of cell proliferation in human HL60 cells at 10 uM after 72 hrs by MTS assay relative to control; type: functional; conditions: HL-60, 72 h
[3] = target: Prohibitin-2 (Homo sapiens) (UniProt Q99623); experiment: Binding affinity to PHB2 in human HBL cells assessed as upregulation of tyrosinase protein expression at 1 to 10 uM after 24 hrs by Western blot analysis; type: cell-based
Sequence of Prohibitin-2 (Homo sapiens) (Q99623 whole entry): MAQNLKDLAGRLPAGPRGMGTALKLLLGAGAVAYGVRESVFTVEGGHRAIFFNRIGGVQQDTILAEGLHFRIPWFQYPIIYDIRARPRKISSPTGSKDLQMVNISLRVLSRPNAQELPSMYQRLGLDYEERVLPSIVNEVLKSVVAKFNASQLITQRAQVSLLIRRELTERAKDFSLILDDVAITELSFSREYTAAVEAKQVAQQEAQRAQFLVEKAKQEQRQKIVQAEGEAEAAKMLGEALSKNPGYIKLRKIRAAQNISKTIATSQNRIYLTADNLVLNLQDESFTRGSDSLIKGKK

[4] = tested on: KB; experiment: Inhibition of cell proliferation in human KB cells at 10 uM after 72 hrs by MTS assay relative to control; type: functional
[5] = tested on: KB; experiment: Inhibition of cell proliferation in human KB cells at 1 uM after 72 hrs by MTS assay relative to control; type: functional
[6] = tested on: HCT-116; experiment: Inhibition of cell proliferation in human HCT116 cells at 1 uM after 72 hrs by MTS assay relative to control; type: functional; conditions: HCT-116, 72 h
[7] = target: T1, Prohibitin 1 (Homo sapiens) (UniProt P35232); experiment: Downregulation of PHB1 in human HBL cells at 1 to 10 uM after 24 hrs by Western blot analysis; type: cell-based
T1 sequence (whole entry): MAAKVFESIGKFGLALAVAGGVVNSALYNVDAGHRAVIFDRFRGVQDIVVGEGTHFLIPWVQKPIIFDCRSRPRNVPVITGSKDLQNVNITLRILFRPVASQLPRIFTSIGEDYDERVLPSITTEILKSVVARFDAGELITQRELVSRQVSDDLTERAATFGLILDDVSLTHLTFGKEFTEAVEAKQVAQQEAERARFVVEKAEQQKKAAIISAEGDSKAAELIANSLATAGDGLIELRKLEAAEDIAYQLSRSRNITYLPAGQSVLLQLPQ

[8] = target: RAC-alpha serine/threonine-protein kinase (Homo sapiens) (UniProt P31749); experiment: Inhibition of Akt phosphorylation in human HBL cells at 1 to 10 uM after 24 hrs by Western blot analysis; type: cell-based
Sequence of RAC-alpha serine/threonine-protein kinase (Homo sapiens) (P31749 whole entry): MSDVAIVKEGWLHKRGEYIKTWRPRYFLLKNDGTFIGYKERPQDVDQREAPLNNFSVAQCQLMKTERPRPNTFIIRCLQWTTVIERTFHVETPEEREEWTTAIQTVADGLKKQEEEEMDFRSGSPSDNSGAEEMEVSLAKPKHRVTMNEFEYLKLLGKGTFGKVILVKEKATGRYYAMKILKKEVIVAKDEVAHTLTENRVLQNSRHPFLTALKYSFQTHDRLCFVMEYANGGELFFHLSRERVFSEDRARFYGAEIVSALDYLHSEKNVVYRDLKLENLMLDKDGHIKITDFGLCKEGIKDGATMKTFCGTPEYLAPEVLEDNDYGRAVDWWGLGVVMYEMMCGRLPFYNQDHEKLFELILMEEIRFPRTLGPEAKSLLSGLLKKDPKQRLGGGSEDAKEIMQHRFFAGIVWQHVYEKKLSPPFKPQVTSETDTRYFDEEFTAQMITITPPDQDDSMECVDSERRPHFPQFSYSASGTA

[9] = tested on: HL-60; experiment: Inhibition of cell proliferation in human HL60 cells at 1 uM after 72 hrs by MTS assay relative to control; type: functional; conditions: HL-60, 72 h
[10] = tested on: HCT-116; experiment: Inhibition of cell proliferation in human HCT116 cells at 10 uM after 72 hrs by MTS assay relative to control; type: functional; conditions: HCT-116, 72 h
[11] = target: Prohibitin-2 (Homo sapiens) (UniProt Q99623); experiment: Binding affinity to PHB2 in human HBL cells assessed as upregulation of MITF protein expression at 1 to 10 uM after 24 hrs by Western blot analysis; type: cell-based
[12] = tested on: MCF7; experiment: Inhibition of cell proliferation in human MCF7 cells at 10 uM after 72 hrs by MTS assay relative to control; type: functional; conditions: MCF7, 72 h
[13] = tested on: HBL; experiment: Inhibition of cell proliferation in human HBL cells at 10 uM after 72 hrs by MTS assay relative to control; type: functional
[14] = tested on: LNCaP; experiment: Inhibition of cell proliferation in human LNCAP cells at 10 uM after 72 hrs by MTS assay relative to control; type: functional
[15] = target: Prohibitin-2 (Homo sapiens) (UniProt Q99623); experiment: Induction of PHB2-mediated melanogenesis in human HBL cells assessed as pigmentation at 10 uM after 10 days relative to control; type: cell-based
[16] = tested on: MCF7; experiment: Inhibition of cell proliferation in human MCF7 cells at 1 uM after 72 hrs by MTS assay relative to control; type: functional; conditions: MCF7, 72 h
[17] = target: Prohibitin-2 (Homo sapiens) (UniProt Q99623); experiment: Induction of PHB2-mediated melanogenesis in human HBL cells assessed as pigmentation at 1 uM after 10 days relative to control; type: cell-based
[18] = target: Prohibitin-2 (Homo sapiens) (UniProt Q99623); experiment: Binding affinity to PHB2 in human HBL cells assessed as LC3-2 accumulation at 1 to 10 uM after 24 hrs by Western blot analysis; type: cell-based
[19] = tested on: PC-3; experiment: Inhibition of cell proliferation in human PC3 cells at 1 uM after 72 hrs by MTS assay relative to control; type: functional; conditions: PC-3, 72 h
[20] = tested on: HBL; experiment: Inhibition of cell proliferation in human HBL cells at 1 uM after 72 hrs by MTS assay relative to control; type: functional
[21] = tested on: PC-3; experiment: Inhibition of cell proliferation in human PC3 cells at 10 uM after 72 hrs by MTS assay relative to control; type: functional; conditions: PC-3, 72 h
[22] = tested on: KB; experiment: Inhibition of cell proliferation in human KB cells after 72 hrs by MTS assay; type: functional, cell-based
[23] = target: Prohibitin-2 (Homo sapiens) (UniProt Q99623); experiment: Binding affinity to PHB2 in human HBL cells assessed as upregulation of ERK phosphorylation at 1 to 10 uM after 24 hrs by Western blot analysis; type: cell-based
[24] = Inhibition of cell proliferation in human EPC cells at 10 uM after 72 hrs by MTS assay relative to control; type: functional
[25] = tested on: HL-60; experiment: Inhibition of cell proliferation in human HL60 cells after 72 hrs by MTS assay; type: functional, cell-based; conditions: HL-60, 72 h
[26] = Inhibition of cell proliferation in human EPC cells at 1 uM after 72 hrs by MTS assay relative to control; type: functional
[27] = tested on: HT-29; experiment: Inhibition of cell proliferation in human HT-29 cells at 10 uM after 72 hrs by MTS assay relative to control; type: functional; conditions: HT-29, 72 h
[28] = tested on: HT-29; experiment: Inhibition of cell proliferation in human HT-29 cells at 1 uM after 72 hrs by MTS assay relative to control; type: functional; conditions: HT-29, 72 h

With `NCCOCCOCCNc1nc(NCc2cccc(F)c2)nc(Oc2c(F)c(F)c(F)c(F)c2F)n1` the inhibition at 1 µM [1] was 11%, the inhibition at 10 µM [2] was 59% and the Activity [3] was “Active”. The inhibition at 10 µM [4] was 89%, the inhibition at 1 µM [5] was 29% and the inhibition at 1 µM [6] was 10%. The Activity [7] was “Active”, the inhibition [8] was “Active” and the inhibition at 1 µM [9] was 31%. The inhibition at 10 µM [10] was 36%, the Activity [11] was “Active” and the inhibition at 10 µM [12] was 27%. It also gave an inhibition at 10 µM [13] of 18%, an inhibition at 10 µM [14] of 32% and a fold change (FC) [15] of 1.25. The inhibition at 1 µM [16] was 11%, the fold change (FC) [17] was 1.05 and the Activity [18] was “Active”. The inhibition at 1 µM [19] was 15%, the inhibition at 1 µM [20] was 9% and the inhibition at 10 µM [21] was 52%. For the same compound, the IC50 [22] was 33 µM, the Activity [23] was “Active” and the inhibition at 10 µM [24] was 58%. For the same compound, the IC50 [25] was 15 µM, the inhibition at 1 µM [26] was 27% and the inhibition at 10 µM [27] was 20%. For the same compound, the inhibition at 1 µM [28] was 12%.
